In PMC11374660, “The novel family of Warbicin® compounds inhibits glucose uptake both in yeast and human cells and restrains cancer cell proliferation” (Frontiers in Oncology, 2024):

Assays:
[1] = tested on: 2-deoxyglucose uptake in A549 lung adenocarcinoma cells; assay: 2-deoxyglucose uptake in A549 lung adenocarcinoma cells; type: cell-based, human
Description: Zero-trans glucose uptake in A549 cells was approximated by measuring the uptake of [1,2-^3H]2-deoxyglucose. For this purpose, A549 cells were pregrown in RPMI medium containing 10 mM glucose in a 24-well plate to a cell density of around 100,000 cells/well. Prior to adding radioactive label, cells were gently washed twice in Krebs-Ringer-HEPES buffer (50 mM HEPES pH 7.4, 137 mM NaCl, 4.7 mM KCl, […], 1.3 mM MgSO4 and 0.1% w/v BSA) at 30°C to remove any residual sugar. RPMI medium without sugar containing the compound intended for treatment, was added to the cells for 15 min at 37°C to allow adequate interaction of the cells with the compound. The uptake measurement was initiated by adding an equal volume of medium containing radiolabeled 2DG. After 3 - 4 min incubation at 37°C, medium was aspirated and cells were gently washed three times with ice-cold Krebs-Ringer-HEPES buffer. Cells were lysed by adding 200 µL of ice-cold 0.1 M NaOH solution and incubating the plate for 10 min at 37°C. Cell lysates were transferred to scintillation vials for subsequent scintillation counting. For blank measurements, cells were incubated with 50 µM Cytochalasin B prior to the uptake measurement.

yeast tps1Δ strain = assay: Growth (rescue) of the yeast tps1Δ strain on galactose with or without glucose; type: cell-based, S. cerevisiae
female NMRI-nu mice = assay: In vivo toxicity and tolerability in mice; conditions: for abnormalities / toxic effects in liver and other organs at autopsy: daily i.p., toxic effects at 20 mg/kg WBC-15C and at 20 and 10 mg/kg WBC-11C, not at lower doses; for loss in body weight: daily intraperitoneal injection, 5, 10 and 20 mg/kg; for AST/ALT ratio vs vehicle: sera after 20 days, 5, 10, 20 mg/kg daily i.p.; for blood glucose level vs vehicle: sera post-mortem after 20 days, 5, 10, 20 mg/kg daily i.p.
Description: Warbicin ® in vivo toxicity and tolerability was examined by subjecting female NMRI-nu mice (12 weeks old) to daily intraperitoneal injection of either WBC-A, WBC-15C, WBC-4C or WBC-11C. Compounds were dosed at either 5 mg/kg, 10 mg/kg or 20 mg/kg over a period of 20 days. Three mice were used per condition. To evaluate toxicity, change in body weight was registered daily. As a humane endpoint, mice that lost more than 20% of their original body weight were prematurely sacrificed. In addition, liver function was examined by measuring the ratio of the AST to ALT enzyme activities (AbCam ab105135, ab105134) in sera samples collected at the end of the experiment. Furthermore, the blood glucose level in mice sera was determined using the colorimetric GOD-PAP method. Due to their considerable hydrophobicity, the compounds were dissolved in a sterilized 1xPBS, 5% DMSO and 5% Tween-80 solution until a homogenous suspension was obtained that could be administered in a reproducible way.

[2] = Solubility of compound stocks; type: physicochemical; conditions: 100% DMSO
Description: WBC-A and the complete structural analog library ( Supplementary Table 2 ) were purchased from different vendors, i.e. Enamine (n = 185), Life Chemicals (n = 10), LabNetwork (n = 4) and Uorsy (n = 4). WBC compounds in general are very insoluble in aqueous solutions, challenging their solubilization. Throughout this work, WBC compounds were always stock aliquoted at 50 mM concentration in 100% DMSO. In many cases, gentle sonication and heating up to 37°C was necessary to completely solubilize the compound stocks. Whereas WBC-A, -15C, -4C and -11C could be dissolved at 50 mM, some structural analogs remained in smooth or rough suspension, regardless of the concentration. Even though it is recommended to aliquot compound stocks, no significant decrease in compound strength by repeated freeze and thaw cycles in DMSO was observed.

[3] = tested on: A549 lung adenocarcinoma cells; assay: Proliferation of A549 lung adenocarcinoma cells; type: cell-based, human; conditions: for relative potency in reducing maximal growth rate of A549 cells: 1 mM glucose, 6.25-50 µM
[4] = tested on: A549 lung adenocarcinoma cells; assay: Glucose consumption and lactate production over 8 h, A549; type: cell-based, human; conditions: A549, 25 µM, 1 mM glucose
Description: The influence of WBC compounds on glucose consumption over a longer time period was studied in the A549 adenocarcinoma and KMS-12-PE multiple myeloma cell lines. As such, different parameters needed to be optimized depending on whether cells were adherent or in suspension. As such, A549 cells were incubated at 125,000 cells/well in a 24-well plate in 300 µL RPMI medium for 8 h. For the KMS-12-PE cell line, 100,000 cells/well were incubated in 100 µL RPMI medium in a 96-well plate for 8 h. Medium was collected, spun down and HPLC-analyzed for measuring glucose and lactate levels. Metabolite levels were corrected for cell number, which always varied little over the span of 8 h. For every condition, at least 4 technical repeats were included.

Compound | type of inhibition of 2-deoxyglucose uptake (Lineweaver-Burk) [1] | Rescue of the tps1∆ strain on 2.5 mM glucose at 100 µM (yeast tps1Δ strain) | Minimal rescue concentration for growth of tps1∆ cells on 2.5 mM glucose (yeast tps1Δ strain) | abnormalities / toxic effects in liver and other organs at autopsy (female NMRI-nu mice; 20 days) | adipose tissue at autopsy (female NMRI-nu mice; nude mice, daily i.p., 5, 10 and 20 mg/kg, 20 days, visual inspection vs vehicle) | loss in body weight (female NMRI-nu mice; nude mice, 20 days) | AST/ALT ratio vs vehicle (female NMRI-nu mice) | blood glucose level vs vehicle (female NMRI-nu mice) | concentration at which compound could be dissolved [2] | Selected from primary screen for growth inhibition of A549 cells at 50 µM ([3]; RPMI 1 mM glucose) | relative potency in reducing maximal growth rate of A549 cells [3] | Selected for having an IC50 ratio (10 mM glucose : 1 mM glucose) of A549 growth higher than WBC-A ([3]; ratio of IC50 on 10 mM and 1 mM glucose, compared to WBC-A) | inhibition of glucose consumption and lactate production [4] | K'i for 2-deoxyglucose uptake ([1]; Dixon plot (Ki = K'i) or Cornish-Bowden plot (WBC-11C)) | Ki ([1]; read-out: Ki for 2-deoxyglucose uptake (Dixon plot)) | rescue of growth on galactose in the presence of 5 mM glucose (yeast tps1Δ strain; 100 μM) | restoration of growth in the presence of 7.5 mM glucose (yeast tps1Δ strain; 100 μM) | inhibition of A549 growth ([3]; RPMI 1 mM glucose, 12.5 µM) | inhibition of A549 growth ([3]; RPMI 1 mM glucose, concentrations higher than 12.5 µM (25, 50 µM)) | inhibition of A549 growth ([3]; RPMI 1 mM or 5 mM glucose, 12.5-50 µM, more pronounced for 1 mM)
Cc1nc(SCC(=O)c2ccc3c(c2)NC(=O)CO3)c2c(-c3cccs3)csc2n1 [WBC-11C] | uncompetitive | Yes | 50 µM | toxic effects were seen in the liver and other organs | adipose tissue was also observed in between the intestines | small transient drop | No significant difference | No significant difference | ≥ 50000 µM | Yes | most | Higher IC50 ratio and confirmed | inhibited glucose consumption and lactate production | – | – | – | – | – | – | –
Cc1nc(Sc2nnc3n2CCCCC3)c2c(-c3cccs3)csc2n1 [WBC-A] | noncompetitive type of inhibition | Yes | 25 µM | No other abnormalities | – | no significant loss in body weight | No significant difference | No significant difference | ≥ 50000 µM | Yes | intermediate potency | – | did not cause inhibition | 52.78 µM | 52.8 µM | rescued growth | not able to restore growth | pronounced inhibition | completely blocked continued cancer cell proliferation | dose-dependent inhibition of growth
